Data: patent US20140350097A1, “TREATMENT OF HYPOTENSION ASSOCIATED WITH HEMODIALYSIS” (priority 2013, published 2014)

What was measured:
[1] = Binding of .NO by NOX-100 in the presence of a metal ion; settings: in the presence of a metal ion (e.g., iron)
Text: As illustrated in Scheme 1 following, the binding is a two-step process. First, two molecules of NOX-100 combine with Fe^2+ to form a complex, [(NOX)2-Fe], which is held together via the planar coordination of the Fe^2+ by two dithiocarbamates. Next, the [(NOX)2-Fe] complex tightly binds .NO, forming an .NO-containing complex, [(NOX)2-Fe—NO]. See e.g., Yokokawa et al, 1995, Id.; Kang et al, 1997, Id.

[2] = Pharmacokinetics after bolus administration in hemodialysis subjects; assay type: in vivo, human
Text: FIG. 1 depicts the results of plasma Cmax of NOX-100 after bolus administration in hemodialysis subjects as a function of dose. See Example 4.
FIG. 2 depicts the results of Area Under the Curve (AUC) of NOX-100 after bolus administration in hemodialysis subjects as a function of dose. See Example 4.
FIG. 3 depicts a histogram of plasma clearance of NOX-100 during dialysis after bolus administration in hemodialysis subject as a function of dose. Legend (x-axis, left to right): 0.33, 1, 3, 9, 25 and 50, mg/kg NOX-100. See Example 4.

mice = assay: Blood pressure studies in mice; assay type: in vivo
Text: The lack of effect on normal blood pressure is advantageous for NOX-100 as a small molecule .NO scavenger.

Wistar rats = assay: Endotoxin (LPS)-induced shock in Wistar rats; assay type: in vivo, rat
Text: For example, in Wistar rats, shock induced by endotoxin such as LPS (lipopolysaccharide from Salmonella typhosa) is accompanied by severe hypotension, as well known in the art. […] In addition, the survival rate was increased by NOX-100.
Bacterial translocation across damaged intestinal epithelium into the circulation occurs in rats during endotoxin-induced shock, as evidenced by positive bacterial cultures grown from blood, mesenteric lymph nodes, spleen, or liver obtained after LPS challenge.
Moreover, in the rat shock model, liver injury occurs as a result of hypoperfusion and Kupffer cell activation with the release of cytokines by LPS.

beagle dogs = assay: 1 or 4 day infusion toxicity in beagle dogs; assay type: in vivo, dog
[3] = tested on: subjects with hypotensive episodes during hemodialysis; assay: Human clinical dose escalation study in hemodialysis subjects with hypotensive episodes; assay type: in vivo
Text: In that study, the drug was given to subjects who had at least 3 hypotensive episodes during hemodialysis in the prior month. Subjects received the drug during hemodialysis when systolic blood pressure (SBP) had fallen at least 15 mmHg. The following trends appeared between drug and placebo periods. […] The SBP over this time period averaged 4 mmHg higher for drug than for placebo with a standard deviation of 16 mmHg. […] As hypotension worsened, the patients developed several different symptoms that were not predictable for any given patient. Clinical interventions intended to relieve hypotension were also variable and were applied at inconsistent times from patient to patient. This was a result of long standing practices established by patient and nurse to avoid severe symptoms. For example, patients would sometimes request an intervention that they thought would be helpful and nurses would sometimes institute an intervention when they thought that a blood pressure trend might soon lead to symptoms. It was felt unethical to intervene in this process, since the aim was to avoid patient discomfort.

[4] = Preliminary intravenous pharmacokinetics in mice; assay type: in vivo, mouse; settings: bolus injection 30 mg/kg i.v.
Procedure: The pharmacokinetics of intravenously administered NOX-100 was evaluated in mice, rats and dogs. Preliminary pharmacokinetic studies were conducted using a bolus injection of 30 mg/kg. Post injection, the drug was rapidly eliminated in all three species in a bi-exponential manner with a beta-t½ of approximately 6, 30 and 40 minutes in the mouse, rat and dog, respectively. […] The volume of distribution was around 20-30% of body weight and was similar in the three species. This is likely due to the hydrophilic nature of the drug and may reflect the distribution of NOX-100 primarily in the extracellular space.

Sprague-Dawley rats = assay: 14-day infusion toxicity in Sprague-Dawley rats; assay type: in vivo
Procedure: The safety profile of NOX-100 was further evaluated in Sprague-Dawley rats (10/sex/group for the main study and 24/sex/group for the satellite groups for plasma concentration determination). Rats were administered with NOX-100 at 0, 100, 500 or 2000 mg/kg/day by infusion over a period of 8 hours for 14 days.
The dose of 100 mg/kg/day is considered the no-effect-level in rats.

[5] = Water solubility and isotonicity of Sodium MGD; assay type: physicochemical
Procedure: Sodium MGD is a white to slightly yellowish powder with 1.5 molecules of co-crystallized water, and is water soluble up to 35% w/v at approximately 25° C. A 4.5% (w/v) solution of the Sodium MGD in water without any additives affords a near isotonic solution.

male Wistar rats = assay: Preliminary acute single dose toxicity study in male Wistar rats; assay type: in vivo, rat; settings: single I.V. 30-608 mg/kg or S.C. 250-1,000 mg/kg, 7-day observation
Procedure: NOX-100 has been evaluated in a number of toxicological studies, including acute (single-dose in rats and dogs; 4-day dosing in rats and dogs), subacute (14-day dosing in rats and dogs) studies, and in vitro mutagenicity testing.
In a preliminary acute single dose study, male Wistar rats were administered NOX-100 intravenously (I.V.) at doses of 30-608 mg/kg or subcutaneous (S.C.) doses of 250-1,000 mg/kg. Each dosing was followed by a 7-day observation period. […] Another group of male Wistar rats were administered NOX-100 with Fe^2+ as a single SC dose at 250-1,000 mg/kg. […] Without wishing to be bound by any theory, it is believed that this discoloration was due to the color of the compound at the high dose.

[6] = females, 500 mg/kg/day, 14 days

## CN(C[C@H](O)[C@@H](O)[C@H](O)[C@H](O)CO)C(=S)S [NOX-100, N-methyl-D-glucamine dithiocarbamate]
[1]
  binding of .NO: binds .NO very tightly
[2]; 0.33-50 mg/kg, FIG. 3
  plasma clearance during dialysis versus dose: decreased slightly with higher doses but the difference was not statistically significant
[2]; bolus administration, hemodialysis subjects, FIG. 1
  plasma Cmax versus dose: proportional to the dose
[2]; bolus administration, hemodialysis subjects, FIG. 2
  Area Under the Curve (AUC) versus dose: proportional to the dose
[2]; human, plasma, intravenous, averaged clearance from the 1, 9, and 50 mg/kg cohorts, read-out: plasma clearance during dialysis
  clearance: ~3.3 mL/min/kg
mice; co-administration with sodium nitroprusside (.NO donor)
  effect on hypotensive effect of nitroprusside: reduced the hypotensive effect of nitroprusside
mice; intravenous infusion of NOX-100 alone
  effect on blood pressure: did not affect blood pressure
Wistar rats; Wistar rats, LPS shock
  survival rate: increased
Wistar rats; Wistar rats, dose 0.3 mmol/kg
  LPS shock hypotension: gradually reversed towards normal blood pressure levels
Wistar rats; rat shock model, 200 mg/kg/day
  plasma indices of liver injury (ornithine carbamoyltransferase, aspartate transaminase, fibrinogen): all significantly reduced
Wistar rats; rats, endotoxin-induced shock, prior infusion 200 mg/kg/day
  reduction of bacterial translocation: about 70%
Beagle dogs; 2000 mg/kg/day
  pathological findings: thickening of the duodenal wall and tubular dilatation of the kidney with basophilia in the cortex and vacuolation in the areas of cortical tubules
Beagle dogs; 500-2000 mg/kg/day, 8-hour infusion, 1 or 4 days
  body weight and food consumption: decreased
Beagle dogs; 2 hours from the start of infusion, males and females
  plasma concentrations on Day 4 compared to Day 1: apparent increases
Beagle dogs; dogs
  doses at which signs of adverse effects were first observed: 500 to 2000 mg/kg/day
[3]; 7 dose escalations, 4 subjects per group
  clinically significant toxicity: did not reveal any clinically significant toxicity at any dose
[3]; 30 to 120 minutes following drug administration, standard deviation 16 mmHg
  average SBP difference, drug higher than placebo: 4 mmHg
[3]; hemodialysis subjects
  heart rate, diastolic blood pressure, number of interventions for low blood pressure or number of symptoms, drug versus placebo periods: no apparent differences
[3]; three highest doses, 30 to 120 minutes following drug administration
  systolic blood pressure (SBP), drug versus placebo: trend for SBP to be higher after drug than after placebo
[4]; in vivo, iv, mouse, read-out: beta-t½
  half-life: ~6 min
[4]; mice
  volume of distribution: 20-30 % of body weight
[4]; mouse, in vivo, iv, mice, read-out: clearance rate
  clearance: 26 mL/min/kg
Sprague-Dawley rats; 2000 mg/kg/day, 14 days
  microscopic findings in urinary bladder and duodenum: hyperplasia of the urinary bladder and increased mitotic figures and dilatation of lymphatic vessels in the duodenum
Sprague-Dawley rats; 8-hour infusion, 14 days
  clinical chemistry, urinary output and kidney weight changes: Elevations in blood urea nitrogen and creatinine, increases in urinary output and kidney weights
  clinical signs of salivation: noted mostly at 2000 mg/kg/day and occasionally in the lower dose groups
  microscopic changes in the kidney: tubular epithelial basophilia, pyelitis at the papillary tip and hyperplasia of the pelvic transitional epithelium
Sprague-Dawley rats; 100, 500 or 2000 mg/kg/day, 8-hour infusion, 14 days
  treatment related deaths: no treatment related deaths
Sprague-Dawley rats; 100-2000 mg/kg/day
  dose concentration relationship: proportional dose concentration relationship
Sprague-Dawley rats; each day
  mean plasma concentrations between 4 to 7.75 hours from the start of infusion: remained constant
Sprague-Dawley rats; [6]
  kidney weights: increased
  microscopic changes (kidney): only seen in one rat
Sprague-Dawley rats; rat, in vivo
  mean plasma concentrations between Days 1, 7 and 14: similar
  mean steady state plasma concentrations, males versus females: no differences
Sprague-Dawley rats; rats, 8-hour infusion, 14 days
  no-effect-level: 100 mg/kg/day
Sprague-Dawley rats; rats, doses of up to 2000 mg/kg/day, 14 consecutive days
  observable toxicity: little observable toxicity
[5]; approximately 25° C.
  water solubility: up to 35 % w/v
[5]; in water without any additives
  concentration of solution in water that is near isotonic: 4.5 % (w/v)
Male Wistar rats
  mortality and overt signs of toxicity: no mortality or overt signs of toxicity
